Test results from US7329661B2, “N-phenyl-3-pyrimidine-amine derivatives” (Novartis AG, priority 2000, dated 2008).

What was measured:
[1] = Human plasma level and half-life; type: in vivo
[2] = tested on: certain cytochrome P450 enzymes; assay: Cytochrome P450 inhibition in vitro; type: in vitro ADME, human
Description: (§1) In order to evaluate the effect of the compounds of formula I on cytochromes P450 (CYPs), e.g. enzyme inhibition is routinely assessed by performing in vitro inhibition studies using cDNA-expressed enzymes or human liver microsomes (Parkinson, A., Toxicol. Pathol. 24, 45-57 [1996]). Specific drug marker substrate assays according to Tucker et al., Clin. Pharmacol. Ther. 70, 103-114 (2001) can be used to determine the 50% inhibition concentration (IC50) of a compound of formula I for the principal drug-metabolizing P450 enzymes such as e.g. CYP1A2, CYP2A6, CYP2B6, CYP2C8, CYP2C9, CYP2C19, CYP2D6, CYP2E1, CYP3A4/5 and CP4A9/11.
(§2) Inhibition constants Ki or IC50 values derived by these in vitro assays provide a measure for the inhibition capacity of the tested drug compound according to the ratio of drug concentration in plasma to the respective inhibition constant Ki, where a ratio of >1.0 results in a high risk, 1.0-0.1 in a medium risk, and <0.1 in a low risk of metabolic drug interaction.

CYP2D6 = CYP2D6 (Homo sapiens, UniProt P10635); assay: Risk of metabolic drug interaction from in vitro P450 inhibition, CYP2D6; type: in vitro ADME; settings: ratio of plasma concentration to Ki
Description: as §1, §2

CYP3A4/5 = assay: Risk of metabolic drug interaction from in vitro P450 inhibition, CYP3A4/5; type: in vitro ADME, human; settings: ratio of plasma concentration to Ki
Description: as §1, §2

CYP2D6, sequence (P10635 whole entry): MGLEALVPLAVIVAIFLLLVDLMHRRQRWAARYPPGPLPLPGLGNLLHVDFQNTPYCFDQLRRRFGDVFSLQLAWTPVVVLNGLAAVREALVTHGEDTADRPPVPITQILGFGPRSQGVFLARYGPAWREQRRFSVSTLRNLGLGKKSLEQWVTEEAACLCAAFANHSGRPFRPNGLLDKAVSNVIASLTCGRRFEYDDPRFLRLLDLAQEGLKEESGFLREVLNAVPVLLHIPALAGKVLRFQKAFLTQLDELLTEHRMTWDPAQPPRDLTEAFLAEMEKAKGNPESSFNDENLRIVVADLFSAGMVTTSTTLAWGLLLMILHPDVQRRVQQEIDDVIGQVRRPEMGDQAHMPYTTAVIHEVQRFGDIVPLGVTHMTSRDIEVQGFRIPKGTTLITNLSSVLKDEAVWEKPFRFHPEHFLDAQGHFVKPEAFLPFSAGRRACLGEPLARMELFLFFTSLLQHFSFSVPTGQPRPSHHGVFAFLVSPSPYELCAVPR

half-life compared with STI571 [1] | inhibition of certain cytochrome P450 enzymes compared with STI571 [2] | risk of drug-drug interactions compared with STI571 (CYP2D6) | risk of drug-drug interactions compared with STI571 (CYP3A4/5) | melting point [°C] | SMILES
somewhat longer than that of STI571 | less inhibition | much lower risk | much lower risk | – | Cc1ccc(NC(=O)c2ccc(CN3CCNCC3)cc2)cc1Nc1nccc(-c2cccnc2)n1 [Example 9, N-[4-methyl-3-(4-pyridin-3-yl-pyrimidin-2-ylamino)-phenyl]-4-piperazin-1-ylmethyl-benzamide]
– | – | – | – | 209.5 to 210.5 | CCN1CCN(Cc2ccc(C(=O)Nc3ccc(C)c(Nc4nccc(-c5cccnc5)n4)c3)cc2)CC1 [Example 1, 4-(4-ethyl-piperazin-1-ylmethyl)-N-[4-methyl-3-(4-pyridin-3-yl-pyrimidin-2-ylamino)-phenyl]-benzamide]
– | – | – | – | 242 to 245 | CS(=O)(=O)O.Cc1ccc(NC(=O)c2ccc(CN3CCNCC3)cc2)cc1Nc1nccc(-c2cccnc2)n1 [Example 10, N-[4-methyl-3-(4-pyridin-3-yl-pyrimidin-2-ylamino)-phenyl]-4-piperazin-1-ylmethyl-benzamide methanesulfonate]
